Molecular target: T1, Nav1.7 (or SCN9A) channel; HEK cells stably transfected with hSCN9A (Homo sapiens, UniProt Q15858)
T1 construct: expressed in transfected cells
Experiment: Nav1.7 block, PatchXpress 7000 automated whole-cell voltage clamp, estimated IC50 (EIC50)
Format: cell-based
Conditions: PatchXpress platform, estimated IC50

[1] = hSCN9A HEK cells held at V1/2 of inactivation
[2] = hSCN9A HEK cells, Examples 815-1040
[3] = hSCN9A HEK cells, Examples 283-814

T1 sequence (Q15858 whole entry): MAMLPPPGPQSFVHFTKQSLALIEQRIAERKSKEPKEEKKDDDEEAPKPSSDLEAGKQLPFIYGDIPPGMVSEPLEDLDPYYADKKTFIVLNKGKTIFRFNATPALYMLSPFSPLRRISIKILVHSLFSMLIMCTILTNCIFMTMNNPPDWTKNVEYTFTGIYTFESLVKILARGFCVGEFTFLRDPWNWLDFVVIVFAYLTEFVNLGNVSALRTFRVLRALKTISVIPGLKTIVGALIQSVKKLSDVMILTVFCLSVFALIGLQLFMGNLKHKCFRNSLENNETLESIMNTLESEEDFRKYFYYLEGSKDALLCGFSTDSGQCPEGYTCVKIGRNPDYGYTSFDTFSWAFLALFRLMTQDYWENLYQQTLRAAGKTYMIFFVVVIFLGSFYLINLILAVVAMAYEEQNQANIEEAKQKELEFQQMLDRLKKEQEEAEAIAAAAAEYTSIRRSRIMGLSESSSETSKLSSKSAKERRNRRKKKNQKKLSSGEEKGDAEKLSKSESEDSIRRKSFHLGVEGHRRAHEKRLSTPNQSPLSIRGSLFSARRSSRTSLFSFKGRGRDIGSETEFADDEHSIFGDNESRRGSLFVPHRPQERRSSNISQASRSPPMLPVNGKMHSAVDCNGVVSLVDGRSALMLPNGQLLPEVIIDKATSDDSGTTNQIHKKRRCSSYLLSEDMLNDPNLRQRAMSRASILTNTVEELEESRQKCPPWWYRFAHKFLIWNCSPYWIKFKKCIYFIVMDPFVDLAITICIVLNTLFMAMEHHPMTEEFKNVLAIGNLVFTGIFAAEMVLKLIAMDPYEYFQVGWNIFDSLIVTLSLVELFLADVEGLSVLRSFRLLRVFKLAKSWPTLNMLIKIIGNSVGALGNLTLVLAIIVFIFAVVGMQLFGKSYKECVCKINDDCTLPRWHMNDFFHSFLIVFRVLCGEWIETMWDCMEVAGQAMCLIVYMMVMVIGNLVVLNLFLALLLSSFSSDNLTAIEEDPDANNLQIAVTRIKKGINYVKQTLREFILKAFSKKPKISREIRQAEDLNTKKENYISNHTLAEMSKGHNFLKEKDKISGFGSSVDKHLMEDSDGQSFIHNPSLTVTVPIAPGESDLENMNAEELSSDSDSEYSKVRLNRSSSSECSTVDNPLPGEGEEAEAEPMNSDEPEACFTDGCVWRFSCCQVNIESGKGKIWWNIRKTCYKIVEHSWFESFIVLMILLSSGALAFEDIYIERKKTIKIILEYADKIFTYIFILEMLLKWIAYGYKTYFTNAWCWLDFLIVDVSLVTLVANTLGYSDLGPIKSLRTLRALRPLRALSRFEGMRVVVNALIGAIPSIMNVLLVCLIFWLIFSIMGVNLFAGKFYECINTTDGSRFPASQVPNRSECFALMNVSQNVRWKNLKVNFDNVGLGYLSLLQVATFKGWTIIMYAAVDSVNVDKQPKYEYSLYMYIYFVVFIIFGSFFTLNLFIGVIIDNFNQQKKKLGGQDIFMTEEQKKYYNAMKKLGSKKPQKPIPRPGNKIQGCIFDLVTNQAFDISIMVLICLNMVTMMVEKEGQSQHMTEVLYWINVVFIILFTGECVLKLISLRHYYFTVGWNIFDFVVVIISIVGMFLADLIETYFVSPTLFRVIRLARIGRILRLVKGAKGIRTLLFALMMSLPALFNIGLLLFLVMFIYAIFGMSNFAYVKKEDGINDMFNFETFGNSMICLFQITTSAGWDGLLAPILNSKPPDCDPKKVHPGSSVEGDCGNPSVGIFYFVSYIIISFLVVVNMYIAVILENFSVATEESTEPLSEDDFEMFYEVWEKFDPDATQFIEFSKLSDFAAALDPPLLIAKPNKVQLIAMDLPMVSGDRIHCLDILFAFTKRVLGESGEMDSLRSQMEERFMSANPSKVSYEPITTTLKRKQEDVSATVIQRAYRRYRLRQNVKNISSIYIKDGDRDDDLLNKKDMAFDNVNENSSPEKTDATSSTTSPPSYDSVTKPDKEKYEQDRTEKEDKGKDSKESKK

Row | SMILES | IC50 [1] [µM] | IC50 [3] [µM] | also measured
1 | N#Cc1cc(S(=O)(=O)Nc2ncns2)ccc1Oc1ccccc1-c1ccccc1 [Example 24, 4-(biphenyl-2-yloxy)-3-cyano-N-(1,2,4-thiadiazol-5-yl)benzenesulfonamide] | 0.11 |  | 
2 | Cc1nsc(NS(=O)(=O)c2cc(Cl)c(Oc3ccc(C(F)(F)F)cc3-c3ccnnc3)cc2F)n1 [Example 871, 5-chloro-2-fluoro-N-(3-methyl-1,2,4-thiadiazol-5-yl)-4-[2-pyridazin-4-yl-4-(trifluoromethyl)phenoxy]benzenesulfonamide] |  |  | IC50 [2]: 0.025 µM
3 | N#Cc1cc(S(=O)(=O)Nc2cscn2)ccc1Oc1ccc(Cl)cc1-c1ccnn1C1CCNCC1 [Example 760, 4-[4-chloro-2-(1-piperidin-4-yl-1H-pyrazol-5-yl)phenoxy]-3-cyano-N-1,3-thiazol-4-ylbenzenesulfonamide] |  | 0.088 | 
4 | N#Cc1cc(S(=O)(=O)Nc2nccs2)ccc1Oc1ccc(Cl)cc1-c1c[nH]nc1N [Example 706, 4-[2-(3-amino-1H-pyrazol-4-yl)-4-chlorophenoxy]-3-cyano-N-1,3-thiazol-2-ylbenzenesulfonamide] |  | 0.026 | 
5 | N#Cc1cc(S(=O)(=O)Nc2ncns2)ccc1Oc1ccc(C(F)(F)F)cc1-c1cccc(CN2CC[C@@H](O)C2)c1 [Example 987, 3-cyano-4-{[3′-{[(3R)-3-hydroxypyrrolidin-1-yl]methyl}-5-(trifluoromethyl)biphenyl-2-yl]oxy}-N-1,2,4-thiadiazol-5-ylbenzenesulfonamide] |  |  | IC50 [2]: 0.0011 µM
6 | N#Cc1cc(S(=O)(=O)Nc2ncc(F)s2)ccc1Oc1ccc(I)cc1-c1ccn[nH]1 [Example 713, 3-Cyano-N-(5-fluoro-1,3-thiazol-2-yl)-4-[4-iodo-2-(1H-pyrazol-5-yl)phenoxy]benzenesulfonamide] |  | 0.0024 | 
7 | N#Cc1cc(S(=O)(=O)Nc2nccs2)ccc1Oc1ccc(-n2cccn2)cc1C(F)(F)F [Example 491, 3-cyano-4-[4-(1H-pyrazol-1-yl)-2-(trifluoromethyl)phenoxy]-N-1,3-thiazol-2-ylbenzenesulfonamide] |  | >1 | 
8 | N#Cc1cc(S(=O)(=O)Nc2nncs2)ccc1Oc1ccc(Cl)cc1-c1ccnc(N2CCOCC2)c1 [Example 899, 4-[4-chloro-2-(2-morpholin-4-ylpyridin-4-yl)phenoxy]-3-cyano-N-1,3,4-thiadiazol-2-ylbenzenesulfonamide] |  |  | IC50 [2]: 0.018 µM
9 | N#Cc1cc(S(=O)(=O)Nc2ncns2)cc(F)c1Oc1ccc(Cl)cc1-c1cn[nH]c1 [Example 676, 4-[4-chloro-2-(1H-pyrazol-4-yl)phenoxy]-3-cyano-5-fluoro-N-1,2,4-thiadiazol-5-ylbenzenesulfonamide] |  | 0.19 | 
10 | N#Cc1cc(S(=O)(=O)Nc2ncns2)ccc1Oc1cc(C(F)(F)F)nn1Cc1ccccc1 [Example 80, 4-{[1-benzyl-3-(trifluoromethyl)-1H-pyrazol-5-yl]oxy}-3-cyano-N-1,2,4-thiadiazol-5-ylbenzenesulfonamide] | >0.3 |  | 
11 | O=S(=O)(Nc1nncs1)c1cc(F)c(Oc2ccc(C(F)(F)F)cc2-c2ccnnc2)cc1F [Example 917, 2,5-difluoro-4-[2-pyridazin-4-yl-4-(trifluoromethyl)phenoxy]-N-1,3,4-thiadiazol-2-ylbenzenesulfonamide] |  |  | IC50 [2]: 0.24 µM
12 | O=S(=O)(Nc1nncs1)c1cc(Cl)c(Oc2cc(C(F)(F)F)c(F)cc2-c2ccnnc2)cc1F [Example 947, 5-chloro-2-fluoro-4-[4-fluoro-2-pyridazin-4-yl-5-(trifluoromethyl)phenoxy]-N-1,3,4-thiadiazol-2-ylbenzenesulfonamide] |  |  | IC50 [2]: 0.023 µM
13 | O=S(=O)(Nc1ncns1)c1ccc(Oc2cc(C(F)(F)F)nn2-c2ccccc2)c(F)c1 [Example 254, 3-fluoro-4-(2-phenyl-5-trifluoromethyl-2H-pyrazol-3-yloxy)-N-1,2,4-thiadiazol-5-yl-benzenesulfonamide] | 0.34 |  | 
14 | Cn1cc(-c2cc(Cl)ccc2Oc2ccc(S(=O)(=O)Nc3ncns3)cc2C#N)ccc1=O [Example 908, 4-[4-chloro-2-(1-methyl-6-oxo-1,6-dihydropyridin-3-yl)phenoxy]-3-cyano-N-1,2,4-thiadiazol-5-ylbenzenesulfonamide] |  |  | IC50 [2]: 0.78 µM
15 | O=S(=O)(Nc1nccs1)c1ccc(Oc2ccccc2-c2ccccc2)c(F)c1 [Example 242, 4-(biphenyl-2-yloxy)-3-fluoro-N-thiazol-2-yl-benzenesulfonamide] | 0.12 |  | 
16 | Cn1cnnc1-c1cc(Cl)ccc1Oc1ccc(S(=O)(=O)Nc2nccs2)cc1C#N [Example 182, 4-(4-chloro-2-(4-methyl-4H-1,2,4-triazol-3-yl)phenoxy)-3-cyano-N-(thiazol-2-yl)benzenesulfonamide] | 0.93 |  | 
17 | Cn1nccc1-c1cc(Cl)ccc1Oc1ccc(S(=O)(=O)Nc2nccs2)cc1F [Example 219, 4-(4-chloro-2-(1-methyl-1H-pyrazol-5-yl)phenoxy)-3-fluoro-N-(thiazol-2-yl)benzenesulfonamide] | 0.02 |  | 
18 | CN1CCN(c2ccc(Oc3ccc(S(=O)(=O)Nc4nccs4)cc3C#N)cc2)C1=O [Example 487, 3-cyano-4-[4-(3-methyl-2-oxoimidazolidin-1-yl)phenoxy]-N-1,3-thiazol-2-ylbenzenesulfonamide] |  | >1 | 
19 | Cc1cccc(-c2cccc(OC(C)C)c2)c1Oc1ccc(S(=O)(=O)Nc2ncns2)cc1C#N [Example 32, 3-cyano-4-[(3′-isopropoxy-3-methylbiphenyl-2-yl)oxy]-N-1,2,4-thiadiazol-5-ylbenzenesulfonamide] | 3.38 |  | 
20 | COc1cccc(-c2ccc(Oc3ccc(S(=O)(=O)Nc4nccs4)cc3C#N)cc2)n1 [Example 451, 3-cyano-4-[4-(6-methoxypyridin-2-yl)phenoxy]-N-1,3-thiazol-2-ylbenzenesulfonamide] |  | >1 | 

Now from value to compound, other results behind:

Row | IC50 [1] [µM] | IC50 [3] [µM] | SMILES | also measured
21 | 1.9 |  | CN(C)C(=O)Cn1nccc1-c1cc(F)ccc1Oc1ccc(S(=O)(=O)Nc2nccs2)cc1F [Example 239, 2-(5-(5-fluoro-2-(2-fluoro-4-(N-thiazol-2-ylsulfamoyl)phenoxy)phenyl)-1H-pyrazol-1-yl)-N,N-dimethylacetamide] | 
22 | 0.73 |  | N#Cc1cc(S(=O)(=O)Nc2ncc(Cl)s2)ccc1Oc1ccccc1Oc1ccncc1 [Example 135, N-(5-chloro-1,3-thiazol-2-yl)-3-cyano-4-[2-(pyridin-4-yloxy)phenoxy]benzenesulfonamide] | 
23 |  | 0.052 | O=S(=O)(Nc1ccc(F)cn1)c1cc(Cl)c(Oc2ccc(C(F)(F)F)cc2C2CCNCC2)cc1F [Example 800, 5-Chloro-2-fluoro-N-(5-fluoropyridin-2-yl)-4-[2-piperidin-4-yl-4-(trifluoromethyl)phenoxy]benzenesulfonamide] | 
24 |  | 0.35 | N#Cc1cc(S(=O)(=O)Nc2nccs2)ccc1Oc1ccc(-n2cc(Cl)cn2)c(Cl)c1 [Example 384, 4-[3-chloro-4-(4-chloro-1H-pyrazol-1-yl)phenoxy]-3-cyano-N-1,3-thiazol-2-ylbenzenesulfonamide] | 
25 | 0.09 |  | Cn1nccc1-c1cc(F)ccc1Oc1ccc(S(=O)(=O)Nc2ncns2)cc1C#N [Example 1, 3-cyano-4-(4-fluoro-2-(1-methyl-1H-pyrazol-5-yl)phenoxy)-N-(1,2,4-thiadiazol-5-yl)benzenesulfonamide] | 
26 |  | 5.1 | COc1cc(-c2cc(F)ccc2Oc2cc(F)c(S(=O)(=O)Nc3cscn3)cc2Cl)n(C)n1 [Example 688, 5-Chloro-2-fluoro-4-[4-fluoro-2-(3-methoxy-1-methyl-1H-pyrazol-5-yl)-phenoxy]-N-1,3-thiazol-4-yl-benzenesulfonamide] | 

Reference: US8541588B2, “Sulfonamide derivatives” (Pfizer Limited, priority 2009, dated 2013)
